The inhibition is how much of the control response was suppressed.

Activity calls are given as the source filed them. No cut-off for these calls is given here.

Test [1] has as its target T1, Peroxisome proliferator-activated receptor alpha (Homo sapiens) (UniProt Q07869).
T1 sequence (whole entry): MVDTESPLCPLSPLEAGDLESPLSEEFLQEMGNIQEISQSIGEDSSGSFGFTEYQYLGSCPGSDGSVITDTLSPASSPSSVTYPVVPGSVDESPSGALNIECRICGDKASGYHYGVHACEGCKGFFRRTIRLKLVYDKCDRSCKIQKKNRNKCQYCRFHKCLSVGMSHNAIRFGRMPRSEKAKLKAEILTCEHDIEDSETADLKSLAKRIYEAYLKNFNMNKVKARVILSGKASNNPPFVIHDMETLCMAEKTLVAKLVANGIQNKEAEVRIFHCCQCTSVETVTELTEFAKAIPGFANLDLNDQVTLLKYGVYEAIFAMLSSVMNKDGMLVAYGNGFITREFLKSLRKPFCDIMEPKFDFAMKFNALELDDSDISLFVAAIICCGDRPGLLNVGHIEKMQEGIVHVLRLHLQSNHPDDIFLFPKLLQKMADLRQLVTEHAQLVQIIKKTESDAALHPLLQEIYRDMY
In words: Antagonist activity at GAL4-tagged human PPARalpha LBD expressed in human HepG2 cells assessed as inhibition of Wy14,643-induced receptor transactivation at 25 uM incubated for 20 hrs by luciferase reporter gene assay relative to control. In kind it is cell-based. For orientation: In a reporter assay the amount or activity of a reporter protein is the signal.

The target in test [2] is T2, Peroxisome proliferator-activated receptor delta (Homo sapiens) (UniProt Q03181).
T2 sequence (whole entry): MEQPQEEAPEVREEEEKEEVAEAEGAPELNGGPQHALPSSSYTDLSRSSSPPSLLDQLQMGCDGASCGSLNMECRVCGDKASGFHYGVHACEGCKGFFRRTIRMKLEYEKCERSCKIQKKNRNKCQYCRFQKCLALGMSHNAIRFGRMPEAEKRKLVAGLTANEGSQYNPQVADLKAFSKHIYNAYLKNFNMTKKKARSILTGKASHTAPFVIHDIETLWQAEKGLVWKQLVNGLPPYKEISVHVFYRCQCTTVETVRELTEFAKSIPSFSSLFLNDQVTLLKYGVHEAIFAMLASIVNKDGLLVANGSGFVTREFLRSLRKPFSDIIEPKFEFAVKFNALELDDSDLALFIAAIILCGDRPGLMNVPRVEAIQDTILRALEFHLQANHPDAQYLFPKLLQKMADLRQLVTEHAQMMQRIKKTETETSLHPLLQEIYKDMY
In words: Antagonist activity at GAL4-tagged human PPARdelta LBD expressed in human HepG2 cells assessed as inhibition of L-165,041-induced receptor transactivation at 25 uM incubated for 20 hrs by luciferase reporter gene assay relative to control. In kind it is cell-based.

A short description of test [3]: (§1) Cytotoxicity against human PTJ86i cells assessed as reduction in cell viability at 75 uM incubated for 72 hrs by MTT assay. In kind it is functional. For orientation: Tetrazolium assays rely on reduction of a dye to a coloured formazan, in cell work by metabolically active cells.
In the next test the test system is SW480. The experiment in a line: Cytotoxicity against human SW480 cells assessed as reduction in cell viability at 75 uM incubated for 72 hrs by MTT assay. In kind it is functional. The following applies: for inhibition at 75 µM: SW480, 72 h.
The subject of another test is Capan-2. The experiment in a line: Cytotoxicity against human Capan2 cells assessed as reduction in cell viability at 75 uM incubated for 72 hrs by MTT assay. In kind it is functional. The following applies: for inhibition at 75 µM: Capan-2, 72 h.
The target of test [4] is T3, Peroxisome proliferator-activated receptor gamma (Homo sapiens) (UniProt P37231).
T3 sequence (whole entry): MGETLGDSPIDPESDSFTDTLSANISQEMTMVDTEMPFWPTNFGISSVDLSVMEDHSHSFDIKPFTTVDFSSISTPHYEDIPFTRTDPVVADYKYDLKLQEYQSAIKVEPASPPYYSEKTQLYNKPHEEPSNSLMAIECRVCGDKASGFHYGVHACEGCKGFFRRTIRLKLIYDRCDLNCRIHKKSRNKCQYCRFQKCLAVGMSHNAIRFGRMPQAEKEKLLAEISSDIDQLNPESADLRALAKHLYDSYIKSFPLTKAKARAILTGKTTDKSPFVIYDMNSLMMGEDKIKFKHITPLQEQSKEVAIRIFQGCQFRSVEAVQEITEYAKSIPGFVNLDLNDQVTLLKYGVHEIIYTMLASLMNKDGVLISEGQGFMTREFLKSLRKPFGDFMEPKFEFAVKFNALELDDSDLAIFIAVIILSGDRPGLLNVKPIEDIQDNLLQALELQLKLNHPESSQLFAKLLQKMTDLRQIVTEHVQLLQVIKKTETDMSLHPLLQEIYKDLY
The experiment in a line: Antagonist activity at GAL4-tagged human PPARgamma LBD expressed in human HepG2 cells assessed as inhibition of rosiglitazone-induced receptor transactivation at 25 uM incubated for 20 hrs by luciferase reporter gene assay relative to control. It is filed as cell-based.

The subject of another test is ASPC1. In words: Cytotoxicity against human AsPC1 cells assessed as reduction in cell viability at 75 uM incubated for 72 hrs by MTT assay. In kind it is functional. The following applies: for inhibition at 75 µM: ASPC1, 72 h.
The test system of the next test is HT-29. The experiment in a line: Cytotoxicity against human HT-29 cells assessed as reduction in cell viability at 75 uM incubated for 72 hrs by MTT assay. To be noted: for inhibition at 75 µM: HT-29, 72 h. In kind it is functional.
The nature of test [5]: (§2) Cytotoxicity against human PTJ64i cells assessed as reduction in cell viability at 75 uM incubated for 72 hrs by MTT assay. In kind it is functional.
The species entered for test [6] is Homo sapiens. The description is as §1. In kind it is functional.
Test [7] is filed under the species Homo sapiens. The description is as §2. It is filed as functional.
Test [8] in a line: Inhibition of colony formation in human PTJ64i cells assessed as surviving fraction at 24 uM incubated for 13 days by crystal violet staining based assay (Rvb=100%). To be noted: 312 h, read-out: Survival. It is filed as functional.
Test [9] is filed under the species Homo sapiens. The experiment in a line: Cytotoxicity against human PTJ86i cells assessed as reduction in cell viability incubated for 72 hrs by MTT assay. In kind it is functional, cell-based.
Test [10] is filed under the species Homo sapiens. The experiment in a line: Cytotoxicity against human PTJ64i cells assessed as reduction in cell viability incubated for 72 hrs by MTT assay. It is filed as functional, cell-based.
Test [11] in a line: Inhibition of colony formation in human PTJ86i cells assessed as plating efficiency at 24 uM incubated for 13 days by crystal violet staining based assay (Rvb=30.25%). In kind it is functional. Further details: scale not given: the % may be the effect or the level left.
The nature of test [12]: Inhibition of colony formation in human PTJ86i cells assessed as surviving fraction at 24 uM incubated for 13 days by crystal violet staining based assay (Rvb=100%). In kind it is functional. The following applies: 312 h, read-out: Survival.
Test [13] is described as follows: Inhibition of colony formation in human PTJ64i cells assessed as plating efficiency at 24 uM incubated for 13 days by crystal violet staining based assay (Rvb=10.75%). In kind it is functional. The arrangement: scale not given: the % may be the effect or the level left.

As for `CCCCNC(=O)C(Sc1nc2cc(Cl)ccc2s1)c1ccccc1` (stereo not given), the %max was 31% in test [1], less than 2% in test [2] and less than 2% in test [4]. In addition, the inhibition at 75 µM in test [3] was no less than 50%; in the test on SW480, no more than 50%; in the test on Capan-2 it was no more than 50%; in the test with ASPC1, no more than 50%; in the test with HT-29 it was no more than 50%; in test [5] it was no less than 50%.

For `CC(NC(=O)C(Sc1nc2cc(Cl)ccc2s1)c1ccccc1)c1ccccc1` (stereo not given), the %max in test [1] was 45%; in [2] it was less than 2%; in test [4], less than 2%. Also, the inhibition at 75 µM in [3] is no less than 50%; with SW480, 60%; in the test with Capan-2, no more than 50%; with ASPC1, no more than 50%; in the test on HT-29, no more than 50%; in test [5], no less than 50%.

Turning to `O=C(NCCc1ccccc1)C(Sc1nc2cc(Cl)ccc2s1)c1ccccc1` (stereo not given), the %max was 57% in test [1], less than 2% in [2] and less than 2% in test [4]. The inhibition at 75 µM in [3] is no less than 50%; in the test on SW480, no more than 50%; in the test on Capan-2, no more than 74%; with ASPC1 it was no more than 74%; in the test on HT-29, no more than 50%; in test [5], no less than 50%.

`CC(=O)Nc1ccc(NC(=O)C(Sc2nc3cc(Cl)ccc3s2)c2ccccc2)cc1` (stereo not given): the %max in test [1] was 22%; in [2] it was less than 2%; in test [4], less than 2%. Besides, the inhibition at 75 µM in [3] was no less than 50%; in the test on SW480, no more than 50%; in the test on Capan-2, no more than 50%; with ASPC1 it was no more than 50%; in the test with HT-29, no more than 50%; in [5] it was no less than 50%.

For the molecule `O=C(NCCCc1ccccc1)C(Sc1nc2cc(Cl)ccc2s1)c1ccccc1` (stereo not given), the %max in [1] was 46%; in test [2], less than 2%; in test [4] it was less than 2%. Besides, the inhibition at 75 µM in [3] was no less than 50%; with SW480, no more than 63%; with Capan-2, no more than 50%; with ASPC1, no more than 50%; with HT-29, no more than 63%; in test [5], no less than 50%.

Take `O=C(NCc1ccccc1)C(Sc1nc2cc(Cl)ccc2s1)c1ccccc1` (stereo not given): the %max in [1] is 35%; in test [2] it was less than 2%; in test [4], less than 2%. Moreover, the inhibition at 75 µM in [3] is no less than 50%; in the test with SW480, no more than 50%; in the test on Capan-2 it was no more than 50%; in the test on ASPC1, no more than 50%; in the test with HT-29 it was no more than 50%; in [5] it was no less than 50%.

On to `CCC(=O)NC[C@H](Cc1ccc(OCCc2nc(-c3ccccc3)oc2C)cc1)N/C(C)=C\C(=O)c1ccc(C(F)(F)F)cc1`, for which the inhibition result in the test listed under Homo sapiens [6], in the test with SW480, with Capan-2, in the test on ASPC1, with HT-29 and in the test listed under Homo sapiens [7] was “Active” each time.

Turning to `O=C(Nc1ccccc1)C(Sc1nc2cc(Cl)ccc2s1)c1ccccc1` (stereo not given), the %max in test [1] is 22%; in test [2], less than 2%; in test [4] it was less than 2%. Further, the viability at 24 µM is 23.3% in test [8] and 18.2% in [12]. Further, the inhibition entry in the test listed under Homo sapiens [9] and in the test listed under Homo sapiens [10] was “Dose-dependent effect” throughout. Further, the inhibition at 75 µM was greater than 90% in [3]; no more than 68% with SW480; no more than 75% in the test on Capan-2; no more than 75% in the test with ASPC1; no more than 68% with HT-29; greater than 90% in [5]. The Activity in test [11] worked out at 5.5%; in test [13] it was 2.5%.

These data come from ChEMBL document CHEMBL4385632, “Synthesis of novel benzothiazole amides: Evaluation of PPAR activity and anti-proliferative effects in paraganglioma, pancreatic and colorectal cancer cell lines” (2019).
